# Source: ChEMBL document CHEMBL1151757, “Synthesis, radiosynthesis, and biological evaluation of fluorine-18-labeled 2beta-carbo(fluoroalkoxy)-3beta-(3'-((Z)-2-haloethenyl)phenyl)nortropanes: candidate radioligands for in vivo imaging of the serotonin transporter with positron emission tomography” (J Med Chem, 2008)
# Key:
# [1] = Ratio of drug uptake in caudate to cerebellum in anesthetized cynomolgus monkey after 185 mins postinjection; format: ADME, organism-based, Macaca fascicularis; conditions: in vivo
# [2] = Drug uptake in anesthetized cynomolgus monkey brain frontal lobe after 125 mins postinjection; format: ADME, organism-based, Macaca fascicularis; conditions: in vivo
# [3] = Ratio of drug uptake in frontal lobe to cerebellum in anesthetized cynomolgus monkey after 35 mins postinjection; format: ADME, organism-based, Macaca fascicularis; conditions: in vivo
# Putamen [4] = experiment: Drug uptake in anesthetized cynomolgus monkey brain putamen after 95 mins postinjection; format: ADME, organism-based, Macaca fascicularis; design: unit not given here; conditions: in vivo
# [5] = Drug uptake in anesthetized cynomolgus monkey brain occipital lobe after 125 mins postinjection; format: ADME, organism-based, Macaca fascicularis; conditions: in vivo
# Pons [6] = experiment: Drug uptake in anesthetized cynomolgus monkey brain pons after 35 mins postinjection; format: ADME, organism-based, Macaca fascicularis; conditions: in vivo
# [7] = Ratio of drug uptake in occipital lobe to cerebellum in anesthetized cynomolgus monkey after 95 mins postinjection; format: ADME, organism-based, Macaca fascicularis; conditions: in vivo
# Caudate [8] = experiment: Drug uptake in anesthetized cynomolgus monkey brain caudate after 65 mins postinjection; format: ADME, organism-based, Macaca fascicularis, Caudate nucleus; conditions: in vivo
# Pons [9] = experiment: Drug uptake in anesthetized cynomolgus monkey brain pons after 85 mins postinjection; format: ADME, organism-based, Macaca fascicularis; conditions: in vivo
# Caudate [10] = experiment: Drug uptake in anesthetized cynomolgus monkey brain caudate after 145 mins postinjection; format: ADME, organism-based, Macaca fascicularis, Caudate nucleus; conditions: in vivo
# Putamen [11] = experiment: Drug uptake in anesthetized cynomolgus monkey brain putamen after 105 mins postinjection; format: ADME, organism-based, Macaca fascicularis; design: unit not given here; conditions: in vivo, 1.75 h
# Medulla [12] = experiment: Drug uptake in anesthetized cynomolgus monkey brain medulla after 15.5 mins postinjection; format: ADME, organism-based, Macaca fascicularis; conditions: in vivo
# [13] = Ratio of drug uptake in medulla to cerebellum in anesthetized cynomolgus monkey after 9.5 mins postinjection; format: ADME, organism-based, Macaca fascicularis; conditions: in vivo
# Midbrain [14] = experiment: Drug uptake in anesthetized cynomolgus monkey brain midbrain after 45 mins postinjection; format: ADME, organism-based, Macaca fascicularis; design: unit not given here; conditions: in vivo, 0.75 h
# [15] = Ratio of drug uptake in putamen to cerebellum in anesthetized cynomolgus monkey after 45 mins postinjection; format: ADME, organism-based, Macaca fascicularis; conditions: in vivo, 0.75 h
# [16] = Drug uptake in anesthetized cynomolgus monkey brain frontal lobe after 105 mins postinjection; format: ADME, organism-based, Macaca fascicularis; conditions: in vivo, 1.75 h
# Medulla [17] = experiment: Drug uptake in anesthetized cynomolgus monkey brain medulla after 165 mins postinjection; format: ADME, organism-based, Macaca fascicularis; conditions: in vivo, 2.75 h
# Putamen [18] = experiment: Drug uptake in anesthetized cynomolgus monkey brain putamen after 22.5 mins postinjection; format: ADME, organism-based, Macaca fascicularis; design: unit not given here; conditions: in vivo, 0.375 h
# Thalamus [19] = experiment: Drug uptake in anesthetized cynomolgus monkey brain thalamus after 1.5 mins postinjection; format: ADME, organism-based, Macaca fascicularis; conditions: in vivo, 0.025 h
# Pons [20] = experiment: Drug uptake in anesthetized cynomolgus monkey brain pons after 145 mins postinjection; format: ADME, organism-based, Macaca fascicularis; conditions: in vivo
# Pons [21] = experiment: Drug uptake in anesthetized cynomolgus monkey brain pons after 9.5 mins postinjection; format: ADME, organism-based, Macaca fascicularis; conditions: in vivo
# [22] = Ratio of drug uptake in frontal lobe to cerebellum in anesthetized cynomolgus monkey after 195 mins postinjection; format: ADME, organism-based, Macaca fascicularis; conditions: in vivo, 3.25 h
# Midbrain [23] = experiment: Drug uptake in anesthetized cynomolgus monkey brain midbrain after 9.5 mins postinjection; format: ADME, organism-based, Macaca fascicularis; design: unit not given here; conditions: in vivo
# Midbrain [24] = experiment: Drug uptake in anesthetized cynomolgus monkey brain midbrain after 2.5 mins postinjection; format: ADME, organism-based, Macaca fascicularis; design: unit not given here; conditions: in vivo
# Pons [25] = experiment: Drug uptake in anesthetized cynomolgus monkey brain pons after 27.5 mins postinjection; format: ADME, organism-based, Macaca fascicularis; conditions: in vivo
# [26] = Ratio of drug uptake in caudate to cerebellum in anesthetized cynomolgus monkey after 9.5 mins postinjection; format: ADME, organism-based, Macaca fascicularis; conditions: in vivo
# [27] = Drug uptake in anesthetized cynomolgus monkey brain cerebellum after 95 mins postinjection; format: ADME, organism-based, Macaca fascicularis; conditions: in vivo
# [28] = Ratio of drug uptake in frontal lobe to cerebellum in anesthetized cynomolgus monkey after 205 mins postinjection; format: ADME, organism-based, Macaca fascicularis; conditions: in vivo
# [29] = Drug uptake in anesthetized cynomolgus monkey brain cerebellum after 55 mins postinjection; format: ADME, organism-based, Macaca fascicularis; conditions: in vivo
# [30] = Drug uptake in anesthetized cynomolgus monkey brain frontal lobe after 135 mins postinjection; format: ADME, organism-based, Macaca fascicularis; conditions: in vivo, 2.25 h
# [31] = Drug uptake in anesthetized cynomolgus monkey brain occipital lobe after 115 mins postinjection; format: ADME, organism-based, Macaca fascicularis; conditions: in vivo
# [32] = Drug uptake in anesthetized cynomolgus monkey brain occipital lobe after 175 mins postinjection; format: ADME, organism-based, Macaca fascicularis; conditions: in vivo
# [33] = Ratio of drug uptake in midbrain to cerebellum in anesthetized cynomolgus monkey after 18.5 mins postinjection; format: ADME, organism-based, Macaca fascicularis; conditions: in vivo
# Medulla [34] = experiment: Drug uptake in anesthetized cynomolgus monkey brain medulla after 95 mins postinjection; format: ADME, organism-based, Macaca fascicularis; conditions: in vivo
# Putamen [35] = experiment: Drug uptake in anesthetized cynomolgus monkey brain putamen after 6.5 mins postinjection; format: ADME, organism-based, Macaca fascicularis; design: unit not given here; conditions: in vivo
# [36] = Ratio of drug uptake in thalamus to cerebellum in anesthetized cynomolgus monkey after 115 mins postinjection; format: ADME, organism-based, Macaca fascicularis; conditions: in vivo
# [37] = Drug uptake in anesthetized cynomolgus monkey brain occipital lobe after 35 mins postinjection; format: ADME, organism-based, Macaca fascicularis; conditions: in vivo
# Pons [38] = experiment: Drug uptake in anesthetized cynomolgus monkey brain pons after 65 mins postinjection; format: ADME, organism-based, Macaca fascicularis; conditions: in vivo
# Thalamus [39] = experiment: Drug uptake in anesthetized cynomolgus monkey brain thalamus after 185 mins postinjection; format: ADME, organism-based, Macaca fascicularis; conditions: in vivo
# [40] = Ratio of drug uptake in midbrain to cerebellum in anesthetized cynomolgus monkey after 2.5 mins postinjection; format: ADME, organism-based, Macaca fascicularis; conditions: in vivo
# Thalamus [41] = experiment: Drug uptake in anesthetized cynomolgus monkey brain thalamus after 45 mins postinjection; format: ADME, organism-based, Macaca fascicularis; design: unit not given here; conditions: in vivo, 0.75 h
# Pons [42] = experiment: Drug uptake in anesthetized cynomolgus monkey brain pons after 95 mins postinjection; format: ADME, organism-based, Macaca fascicularis; conditions: in vivo
# [43] = Drug uptake in anesthetized cynomolgus monkey brain frontal lobe after 55 mins postinjection; format: ADME, organism-based, Macaca fascicularis; conditions: in vivo
# [44] = Drug uptake in anesthetized cynomolgus monkey brain frontal lobe after 205 mins postinjection; format: ADME, organism-based, Macaca fascicularis; conditions: in vivo
# [45] = Ratio of drug uptake in medulla to cerebellum in anesthetized cynomolgus monkey after 0.5 mins postinjection; format: ADME, organism-based, Macaca fascicularis; conditions: in vivo
# [46] = Ratio of drug uptake in putamen to cerebellum in anesthetized cynomolgus monkey after 165 mins postinjection; format: ADME, organism-based, Macaca fascicularis; conditions: in vivo, 2.75 h
# Pons [47] = experiment: Drug uptake in anesthetized cynomolgus monkey brain pons after 55 mins postinjection; format: ADME, organism-based, Macaca fascicularis; conditions: in vivo
# [48] = Ratio of drug uptake in thalamus to cerebellum in anesthetized cynomolgus monkey after 135 mins postinjection; format: ADME, organism-based, Macaca fascicularis; conditions: in vivo, 2.25 h
# [49] = Ratio of drug uptake in midbrain to cerebellum in anesthetized cynomolgus monkey after 215 mins postinjection; format: ADME, organism-based, Macaca fascicularis; conditions: in vivo
# [50] = Ratio of drug uptake in pons to cerebellum in anesthetized cynomolgus monkey after 215 mins postinjection; format: ADME, organism-based, Macaca fascicularis; conditions: in vivo
smiles,measurement,setting,value
O=C(OCCC[18F])C1C2CCC(CC1c1cccc(/C=C\I)c1)N2 (stereo not given),Ratio,[1],1.3
same,Drug uptake,[2],2.54
same,Ratio,[3],0.6
same,Drug uptake,Putamen [4],4.67
same,Drug uptake,[5],2.96
same,Drug uptake,Pons [6],4.25
same,Ratio,[7],1
same,Drug uptake,Caudate [8],3.99
same,Drug uptake,Pons [9],4.12
same,Drug uptake,Caudate [10],3.24
same,Drug uptake,Putamen [11],4.52
same,Drug uptake,Medulla [12],4.36
same,Ratio,[13],0.9
same,Drug uptake,Midbrain [14],5.02
same,Ratio,[15],1.1
same,Drug uptake,[16],2.58
same,Drug uptake,Medulla [17],4.45
same,Drug uptake,Putamen [18],4.71
same,Drug uptake,Thalamus [19],0.24
same,Drug uptake,Pons [20],3.74
same,Drug uptake,Pons [21],3.47
same,Ratio,[22],0.9
same,Drug uptake,Midbrain [23],4
same,Drug uptake,Midbrain [24],0.98
same,Drug uptake,Pons [25],4.39
same,Ratio,[26],0.6
same,Drug uptake,[27],3.46
same,Ratio,[28],1
same,Drug uptake,[29],4.31
same,Drug uptake,[30],2.35
same,Drug uptake,[31],3.09
same,Drug uptake,[32],2.55
same,Ratio,[33],1
same,Drug uptake,Medulla [34],4.93
same,Drug uptake,Putamen [35],3.28
same,Ratio,[36],1.4
same,Drug uptake,[37],4.01
same,Drug uptake,Pons [38],4.54
same,Drug uptake,Thalamus [39],3.29
same,Ratio,[40],0.9
same,Drug uptake,Thalamus [41],4.84
same,Drug uptake,Pons [42],4.41
same,Drug uptake,[43],2.82
same,Drug uptake,[44],1.89
same,Ratio,[45],1.5
same,Ratio,[46],1.6
same,Drug uptake,Pons [47],4.4
same,Ratio,[48],1.5
same,Ratio,[49],1.8
same,Ratio,[50],1.5
